The text below walks through data of US5324648A, “Substituted isocoumarins as serine protease inhibitors and anti-inflammatory agents” (Georgia Tech Research Corporation, priority 1992, dated 1994).

Like-named read-outs stand apart in the source and are kept apart here.

Assay [1] deals with T1, porcine pancreatic elastase (PPE) (Sus scrofa, UniProt P00772).
T1 construct: from tissue; host or cells: porcine pancreas (from the name)
Nature of the assay: Inactivation of porcine pancreatic elastase (PPE). The assay is classed as biochemical. The note with it: for kinact/KI: read-out: kobs/[I].

Assay [2] addresses T2, human leukocyte elastase (HLE) (Homo sapiens, UniProt P08246).
T2 construct: from tissue; host or cells: human leukocytes (from the name)
T2 sequence (P08246 30-267): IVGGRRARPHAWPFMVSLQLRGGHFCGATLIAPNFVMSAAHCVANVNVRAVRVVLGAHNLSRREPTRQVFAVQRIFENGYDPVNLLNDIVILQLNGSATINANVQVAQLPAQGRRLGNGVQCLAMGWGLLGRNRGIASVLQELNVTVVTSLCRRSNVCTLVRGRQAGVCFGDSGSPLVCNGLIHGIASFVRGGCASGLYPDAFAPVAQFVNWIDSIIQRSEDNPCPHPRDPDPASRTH
The assay can be described thus: Inactivation of human leukocyte elastase (HLE). Format: biochemical. As to conditions: for kinact/KI: read-out: kobs/[I].

A further assay addresses chymotrypsin (Bos taurus, UniProt P00766). The assay can be described thus: Inactivation of chymotrypsin. Format: biochemical, bovine.
The next assay addresses T3, cathepsin G (Homo sapiens, UniProt P08311).
T3 construct: from tissue; host or cells: human leukocytes
T3 sequence (P08311 21-255): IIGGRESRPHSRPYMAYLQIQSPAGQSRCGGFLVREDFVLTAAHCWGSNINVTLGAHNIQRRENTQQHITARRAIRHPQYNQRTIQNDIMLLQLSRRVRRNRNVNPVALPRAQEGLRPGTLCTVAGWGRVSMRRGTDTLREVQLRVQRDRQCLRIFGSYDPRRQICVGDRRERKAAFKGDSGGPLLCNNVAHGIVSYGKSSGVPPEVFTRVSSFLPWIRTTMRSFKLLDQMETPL
The assay can be described thus: Inactivation of cathepsin G. The arrangement: percentage of inhibition: concentration or dose not given beside the values. The assay is classed as biochemical. As to conditions: for percentage of inhibition: after 5 min incubation; for kinact/KI: read-out: kobs/[I].

Where [3] appears, read: Table XVI, pH 7.5, 25° C, [I] 0.04-2.0 mM.
The mark [4] stands for this setting: Table XVI, pH 7.5, 25° C, [I] 0.07-710 μM.
Setting [5] is: Table XVI, pH 7.5, 25° C, [I] 35-710 μM.
Setting [6] is: Table XVI, pH 7.5, 25° C, [I] 1.7-58 μM, read-out: kobs/[I].
[7] abbreviates: pH 7.5, Table XVI, second order, equimolar inhibitor and enzyme.
Where [8] appears, read: pH 7.5, Table XVI, biphasic plot, read-out: kobs/[I] (biphasic, first value).
[9] abbreviates: pH 7.5, Table XVI, biphasic plot, read-out: kobs/[I] (biphasic, second value).
[10] abbreviates: pH 7.5, Table XII, 2.5% Me2SO, 25° C, [I] 0.7-1.9 μM.
Setting [11] is: pH 7.5, Table XII, 2.5% Me2SO, 25° C, [I] 8.7-87 μM.
Where [12] appears, read: pH 7.5, Table XII, 2.5% Me2SO, 25° C, [I] 34-56 μM.
Where [13] appears, read: pH 7.5, Table XII, 2.5% Me2SO, 25° C, [I] 3.4-70 μM, read-out: kobs/[I].

T1 sequence (P00772 27-266): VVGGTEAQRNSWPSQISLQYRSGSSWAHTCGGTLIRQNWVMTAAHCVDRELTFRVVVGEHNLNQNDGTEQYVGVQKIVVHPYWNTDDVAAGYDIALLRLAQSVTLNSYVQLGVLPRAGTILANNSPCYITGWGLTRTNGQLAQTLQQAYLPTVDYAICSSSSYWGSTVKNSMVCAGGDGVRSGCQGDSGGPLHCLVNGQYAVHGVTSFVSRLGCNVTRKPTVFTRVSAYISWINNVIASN

Turning to `CCCOCCOc1oc(=O)c2cc(N)ccc2c1Cl`, the “kobs/[I]” value was determined as 0.5 M⁻¹ s⁻¹ in assay [1] (setting [3]); 33 M⁻¹ s⁻¹ in assay [2] (setting [4]); 140 M⁻¹ s⁻¹ on chymotrypsin (Table XVI, pH 7.5, 25° C, [I] 1.7-58 μM); 2.6 M⁻¹ s⁻¹ on cathepsin G (setting [5]).

Consider `CC(C)(C)OC(=O)N[C@H](Cc1ccccc1)C(=O)Nc1ccc2c(Cl)c(OCCBr)oc(=O)c2c1` [7-(N-t-butyloxycarbonyl-D-phenylalanyl)amino-4-chloro-3-(2-bromoethoxy)isocoumarin], for which the figures for the kinact/KI (in assay [1] (setting [3]); on chymotrypsin (setting [6])) were 30 M⁻¹ s⁻¹ and 150 M⁻¹ s⁻¹, respectively. At cathepsin G (Table XVI), this compound returned a percentage of inhibition of 19%.

Turning to `C[C@H](NC(=O)OC(C)(C)C)C(=O)N[C@@H](C)C(=O)Nc1ccc2c(Cl)c(OCCBr)oc(=O)c2c1` [7-(N-t-butyloxycarbonyl-L-alanylalanyl)amino-4-chloro-3-(2-bromoethoxy)isocoumarin], the kinact/KI was determined as 1670 M⁻¹ s⁻¹ in assay [1] (setting [3]); 230000 M⁻¹ s⁻¹ in assay [2] (setting [7]); 2750 M⁻¹ s⁻¹ on chymotrypsin (setting [8]); 810 M⁻¹ s⁻¹ on chymotrypsin (setting [9]); 46 M⁻¹ s⁻¹ on cathepsin G (setting [5]).

In the case of `CC(C)(C)OC(=O)N[C@@H](Cc1ccccc1)C(=O)Nc1ccc2c(Cl)c(OCCBr)oc(=O)c2c1` [7-(N-t-butyloxycarbonyl-L-phenylalanyl)amino-4-chloro-3-(2-bromoethoxy)isocoumarin], the figures for the kinact/KI (in assay [1] (setting [3]); at chymotrypsin (setting [6])) were 50 M⁻¹ s⁻¹ and 400 M⁻¹ s⁻¹, respectively. The same compound gave a percentage of inhibition at cathepsin G (Table XVI) of 19%.

Consider `CCCOc1oc(=O)c2cc(NC(=O)[C@@H](NC(=O)OC(C)(C)C)C(C)C)ccc2c1Cl` [7-(N-t-butyloxycarbonyl-valyl)amino-4-chloro-3-propyloxyisocoumarin], for which the kinact/KI in assay [2] (setting [10]) was found to be 64000 M⁻¹ s⁻¹; at cathepsin G (setting [11]), 17 M⁻¹ s⁻¹.

Take `C[C@@H](NC(=O)Nc1ccc2c(Cl)c(OCCBr)oc(=O)c2c1)c1ccccc1` [7-(R-α-methylbenzyl)carbamoylamino-4-chloro-3-(2-bromoethoxy)isocoumarin]: the kinact/KI in assay [1] (setting [3]) is 9900 M⁻¹ s⁻¹; in assay [2] (setting [7]), > 440000 M⁻¹ s⁻¹; at chymotrypsin (setting [8]), 180 M⁻¹ s⁻¹; on chymotrypsin (setting [9]), 90 M⁻¹ s⁻¹; on cathepsin G (setting [5]), 77 M⁻¹ s⁻¹.

For the compound `C[C@H](NC(=O)Nc1ccc2c(Cl)c(OCCBr)oc(=O)c2c1)c1ccccc1` [7-(S-α-methylbenzyl)carbamoylamino-4-chloro-3-(2-bromoethoxy)isocoumarin], the values for the kinact/KI (in assay [1] (setting [3]); in assay [2] (setting [7]); at chymotrypsin (setting [6])) were 2660 M⁻¹ s⁻¹, > 570000 M⁻¹ s⁻¹ and 440 M⁻¹ s⁻¹, respectively. The same compound gave a percentage of inhibition on cathepsin G (Table XVI) of 21%.

As for `O=C(O)c1cccc(NC(=S)Nc2ccc3c(Cl)c(OCCBr)oc(=O)c3c2)c1` [7-(m-carboxyphenyl)thiocarbamoylamino-4-chloro-3-(2-bromoethoxy)isocoumarin], the figures for the kinact/KI (in assay [2] (setting [7]); on chymotrypsin (setting [6]); at cathepsin G (setting [5])) were > 240000 M⁻¹ s⁻¹, 1960 M⁻¹ s⁻¹ and 320 M⁻¹ s⁻¹, respectively.

With `CCCOc1oc(=O)c2cc(NC(=O)c3cccc([N+](=O)[O-])c3)ccc2c1Cl` [7-(m-nitrobenzoyl)amino-4-chloro-3-propyloxyisocoumarin], the kinact/KI is > 210000 M⁻¹ s⁻¹ in assay [2] (setting [10]) and 4 M⁻¹ s⁻¹ on cathepsin G (setting [11]).

`O=C(O)c1ccc(NC(=S)Nc2ccc3c(Cl)c(OCCBr)oc(=O)c3c2)cc1` [7-(p-carboxyphenyl)thiocarbamoylamino-4-chloro-3-(2-bromoethoxy)isocoumarin]: the kinact/KI in assay [2] (setting [7]) was > 390000 M⁻¹ s⁻¹; on chymotrypsin (setting [6]), 1720 M⁻¹ s⁻¹; on cathepsin G (setting [5]) it was 450 M⁻¹ s⁻¹.

As to `CCCOc1oc(=O)c2cc(NC(=O)CSC)ccc2c1Cl` [7-[(2-thiomethyl)acetyl]amino-4-chloro-3-propyloxyisocoumarin], the kinact/KI was > 152000 M⁻¹ s⁻¹ in assay [2] (setting [10]) and 28 M⁻¹ s⁻¹ on cathepsin G (setting [11]).

For `CC(=O)Nc1ccc2c(Cl)c(OCCCBr)oc(=O)c2c1` [7-acetylamino-4-chloro-3-(3-bromopropoxy)isocoumarin], the kinact/KI was determined as 24 M⁻¹ s⁻¹ in assay [1] (setting [3]), 24400 M⁻¹ s⁻¹ in assay [2] (setting [4]), 3980 M⁻¹ s⁻¹ on chymotrypsin (setting [6]) and 170 M⁻¹ s⁻¹ on cathepsin G (setting [5]).

In the case of `Nc1ccc2c(Cl)c(OCCBr)oc(=O)c2c1` [7-amino-4-chloro-3-(2-bromoethoxy)isocoumarin], the kinact/KI in assay [1] (setting [3]) stood at 1000 M⁻¹ s⁻¹; in assay [2] (pH 7.5, Table XVI, progress curve method), 200000 M⁻¹ s⁻¹; at chymotrypsin (setting [6]), 1160 M⁻¹ s⁻¹; on cathepsin G (setting [5]) it was 410 M⁻¹ s⁻¹.

As to `CC(CBr)Oc1oc(=O)c2cc(N)ccc2c1Cl` (stereo not shown) [7-amino-4-chloro-3-(2-bromoisopropoxy)isocoumarin], the kinact/KI is 62 M⁻¹ s⁻¹ in assay [1] (setting [3]), 24000 M⁻¹ s⁻¹ in assay [2] (setting [4]), 320 M⁻¹ s⁻¹ at chymotrypsin (setting [6]) and 150 M⁻¹ s⁻¹ on cathepsin G (setting [5]).

Turning to `Nc1ccc2c(Cl)c(OCCCBr)oc(=O)c2c1` [7-amino-4-chloro-3-(3-bromopropoxy)isocoumarin], the kinact/KI in assay [1] (setting [3]) stood at 10 M⁻¹ s⁻¹; in assay [2] (setting [4]), 4000 M⁻¹ s⁻¹; on chymotrypsin (setting [6]) it was 790 M⁻¹ s⁻¹; on cathepsin G (setting [5]), 210 M⁻¹ s⁻¹.

For `CCCOc1oc(=O)c2cc(N)ccc2c1Cl` [7-amino-4-chloro-3-propoxyisocoumarin], the kinact/KI in assay [1] (setting [3]) was 4.3 M⁻¹ s⁻¹; in assay [2] (setting [4]) it was 390 M⁻¹ s⁻¹; on chymotrypsin (setting [6]) it was 375 M⁻¹ s⁻¹; at cathepsin G (setting [5]) it was 61 M⁻¹ s⁻¹.

Take `O=C(NCc1ccccc1)Nc1ccc2c(Cl)c(OCCBr)oc(=O)c2c1` [7-benzylcarbamoylamino-4-chloro-3-(2-bromoethoxy)isocoumarin]: the kinact/KI in assay [1] (setting [3]) came out at 3010 M⁻¹ s⁻¹; in assay [2] (setting [7]) it was 480000 M⁻¹ s⁻¹; at chymotrypsin (setting [6]) it was 890 M⁻¹ s⁻¹. In addition, the percentage of inhibition at cathepsin G (Table XVI) is listed as 23%.

As to `O=C(NCc1ccccc1)Nc1ccc2c(Cl)c(OCCCBr)oc(=O)c2c1` [7-benzylcarbamoylamino-4-chloro-3-(3-bromopropoxy)isocoumarin], the kinact/KI was determined as 13 M⁻¹ s⁻¹ in assay [1] (setting [3]), 15600 M⁻¹ s⁻¹ in assay [2] (setting [4]) and 440 M⁻¹ s⁻¹ on chymotrypsin (setting [6]). In addition, the percentage of inhibition on cathepsin G (Table XVI) is 21%.

On to `CCCOc1oc(=O)c2cc(NC(=O)CCc3ccccc3)ccc2c1Cl` [7-dihydrocinnamoylamino-4-chloro-3-propyloxyisocoumarin], for which the kinact/KI is 220 M⁻¹ s⁻¹ in assay [1] (setting [12]), > 250000 M⁻¹ s⁻¹ in assay [2] (setting [10]), 12000 M⁻¹ s⁻¹ on chymotrypsin (setting [13]) and 20 M⁻¹ s⁻¹ on cathepsin G (setting [11]).

Take `CCCOc1oc(=O)c2cc(NC(=O)OCC)ccc2c1Cl` [7-ethoxycarbonylamino-4-chloro-3-propyloxyisocoumarin]: the kinact/KI in assay [1] (setting [12]) is 1600 M⁻¹ s⁻¹; in assay [2] (setting [10]) it was > 181000 M⁻¹ s⁻¹; on chymotrypsin (setting [13]) it was 5200 M⁻¹ s⁻¹; at cathepsin G (setting [11]), 138 M⁻¹ s⁻¹.

`CCCOc1oc(=O)c2cc(NC(=O)NCC)ccc2c1Cl` [7-ethylcarbamoylamino-4-chloro-3-propyloxyisocoumarin]: the kinact/KI is 80 M⁻¹ s⁻¹ in assay [1] (setting [12]), > 276000 M⁻¹ s⁻¹ in assay [2] (setting [10]), 120 M⁻¹ s⁻¹ on chymotrypsin (setting [13]) and 166 M⁻¹ s⁻¹ at cathepsin G (setting [11]).

As to `CC(C)NC(=O)Nc1ccc2c(Cl)c(OCCBr)oc(=O)c2c1` [7-isopropylcarbamoylamino-4-chloro-3-(2-bromoethoxy)isocoumarin], the kinact/KI stood at 4470 M⁻¹ s⁻¹ in assay [1] (setting [3]); 646000 M⁻¹ s⁻¹ in assay [2] (setting [7]); 1340 M⁻¹ s⁻¹ at chymotrypsin (setting [8]); 380 M⁻¹ s⁻¹ at chymotrypsin (setting [9]); 77 M⁻¹ s⁻¹ on cathepsin G (setting [5]).

In the case of `O=C(Nc1ccc2c(Cl)c(OCCBr)oc(=O)c2c1)Nc1cccc2ccccc12` [7-naphthylcarbamoylamino-4-chloro-3-(2-bromoethoxy)isocoumarin], the kinact/KI in assay [1] (setting [3]) came to 76 M⁻¹ s⁻¹; in assay [2] (setting [7]), 390000 M⁻¹ s⁻¹; on chymotrypsin (setting [6]) it was 80 M⁻¹ s⁻¹. For the same compound, the percentage of inhibition at cathepsin G (Table XVI) worked out at 22%.

Take `CC(CBr)Oc1oc(=O)c2cc([N+](=O)[O-])ccc2c1Cl` (stereo not shown) [7-nitro-4-chloro-3-(2-bromoisopropoxy)isocoumarin]: the kinact/KI in assay [1] (setting [3]) amounted to 1060 M⁻¹ s⁻¹; on chymotrypsin (pH 7.5, Table XVI, second order, equimolar inhibitor and enzyme, read-out: kobs/[I]), 200000 M⁻¹ s⁻¹; on cathepsin G (setting [5]), 1660 M⁻¹ s⁻¹.

As for `CC(C)(C)CC(=O)Nc1ccc2c(Cl)c(OCCBr)oc(=O)c2c1` [7-t-butylacetylamino-4-chloro-3-(2-bromoethoxy)isocoumarin], the kinact/KI in assay [1] (setting [3]) was found to be 3650 M⁻¹ s⁻¹; on chymotrypsin (setting [6]) it was 1070 M⁻¹ s⁻¹; on cathepsin G (setting [5]), 240 M⁻¹ s⁻¹.

With `CC(C)(C)NC(=O)Nc1ccc2c(Cl)c(OCCBr)oc(=O)c2c1` [7-t-butylcarbamoylamino-4-chloro-3-(2-bromoethoxy)isocoumarin], the kinact/KI turned out to be 6600 M⁻¹ s⁻¹ in assay [1] (setting [3]), 320 M⁻¹ s⁻¹ at chymotrypsin (setting [6]) and 56 M⁻¹ s⁻¹ on cathepsin G (setting [5]).
